# Counter-ions that a name gives are not always drawn. Like-named read-outs stand apart in the source and are kept apart here.
# Columns and labels:
# [1] = system: spontaneous hypertensive rats of the Milan (MHS); experiment: antihypertensive activity in spontaneous hypertensive rats (MHS), indirect tail-cuff method; format: in vivo, rat; conditions: 10 mg/Kg/os daily for ten days in Methocel 0.5% w/v, 7 rats; for SBP (SYSTOLIC BLOOD PRESSURE FALL IN SPONTANEOUS HYPERTENSIVE RATS (MHS)): controls 172 +/- 2.0; for HR (heart rate): controls 328 +/- 8.6
# [2] = molecular target: T1, Na^+,K^+ -ATPase receptor (Homo sapiens, UniProt P05023); experiment: displacement of the specific ^3 H-ouabain binding from the purified Na^+,K^+ -ATPase receptor; conditions: ^3 H-ouabain displacement, read-out: Binding ^3 H-Ouab. Displacement log IC50 (converted)
# T1 construct: receptor purified according to Jorghensen (Jorghensen P., BBA, 1974, 356, 36); from tissue; kidney outer medulla inferred from the cited Jorgensen method
# Excerpt: (§1) To test the affinity for the receptor site of the Na^+,K^+ -ATPase and the inhibitory activity on the enzyme, the following tests were used: a) displacement of the specific ^3 H-ouabain binding from the Na^+,K^^+ -ATPase receptor purified according to Jorghensen (Jorghensen P., BBA, 1974, 356, 36) and Erdmann (Erdmann E. et al., Arzneim. Forsh., 1984, 34, 1314); b) inhibition of the activity of the purified Na^+,K^+ -ATPase measured as % of hydrolysis of ^32 P-ATP in presence and in absence of the tested compound (Mall F. et al., Biochem. Pharmacol., 1984, 33, 47).
# [3] = molecular target: T2, purified Na^+,K^+ -ATPase (Homo sapiens, UniProt P05023); experiment: biochemical
# T2 construct: receptor purified according to Jorghensen (Jorghensen P., BBA, 1974, 356, 36); from tissue; kidney outer medulla inferred from the cited Jorgensen method
# Excerpt: as §1
# [4] = purified Na^+,K^+ -ATPase, ^32 P-ATP hydrolysis, read-out: Inhibitory Activity log IC50 (converted)
SMILES,SBP (SYSTOLIC BLOOD PRESSURE FALL IN SPONTANEOUS HYPERTENSIVE RATS (MHS)) [1],HR (heart rate) [1],IC50 [2] [nM],"IC50 [3, 4] [µM]",IC50 [3] [µM]
"C[C@]12CC[C@H](O)C[C@H]1CC[C@@H]1[C@@H]2CC[C@]2(C)[C@@](O)(c3ccoc3)CC[C@]12O [Comp. I-a, 17β(3-Furyl)-5β-androstane-3β,14β,17α-triol]",149 +/- 4.3 mm Hg,318 +/- 10.2 beats/min.,1580,31.6,
"C[C@]12CC[C@H](OCCO)C[C@H]1CC[C@@H]1[C@@H]2CC[C@]2(C)[C@@](O)(c3ccoc3)CC[C@]12O [Comp. I-b, 3β-(2-Hydroxyethoxy)-17β-(3-furyl)-5β-androstane-14β,17α-diol]",,,3160,25.1,
"C[C@]12CC[C@H](OCCCN)C[C@H]1CC[C@@H]1[C@@H]2CC[C@]2(C)[C@@](O)(c3ccoc3)CC[C@]12O [Comp. I-c, 3β-(3-Aminopropoxy), 17β-(3-furyl)-5β-androstane-14β,17α-diol]",,,501,7.94,
"C[C@]12CC[C@H](OCCN3CCCC3)C[C@H]1CC[C@@H]1[C@@H]2CC[C@]2(C)[C@@](O)(c3ccoc3)CC[C@]12O [Comp. I-d, 3β-(2-(1-Pyrrolidinyl)ethoxy)-17β-(3-furyl)-5β-androstane-14β,17α-diol]",158 +/- 2.5 mm Hg,325 +/- 9.3 beats/min.,631,15.8,
"CO[C@]1(c2ccoc2)CC[C@]2(O)[C@@H]3CC[C@@H]4C[C@@H](OCCN5CCCC5)CC[C@]4(C)[C@H]3CC[C@]12C [Comp. I-f, 3β-(2-(β1-Pyrrolidinyl)ethoxy)-17β-(3-furyl)-17α-methoxy-5β-androstan-14β-ol]",,,5010,25.1,
C[C@]12CCC(=O)C[C@H]1CC[C@@H]1[C@@H]2CC[C@]2(C)[C@@](O)(c3ccoc3)CC[C@]12O [Comp. I-j],,,3980,79.4,
"C[C@]12CCC(=NN=C(N)N)C[C@H]1CC[C@@H]1[C@@H]2CC[C@]2(C)[C@@](O)(c3ccoc3)CC[C@]12O [Comp. I-k, 3-Guanidinoimino-17β-(3-furyl)-5β-androstane-14β,17α-diol]",,,1000,15.8,
"C[C@]12CC[C@H](O)C[C@H]1CC[C@@H]1[C@@H]2CC[C@]2(C)[C@@](O)(c3ccnnc3)CC[C@]12O [Comp. I-n, 17β-(4-Pyridazinyl)-5β-androstane-3β,14β,17α-triol]",,,2510,25.1,
"C[C@]12CC[C@H](SCCCN)C[C@H]1CC[C@@H]1[C@@H]2CC[C@@]2(C)[C@@]13O[C@@H]3C[C@]2(O)c1ccoc1 [Comp. I-r, 3β-(3-Aminopropylthio)-14β,15β-epoxy-17β-(3-furyl)-5β-androstan-17α-ol oxalate]",154 +/- 2.4 mm Hg,320 +/- 9.6 beats/min.,3980,31.6,
"C[C@]12CC[C@H](OCCOCCN3CCCC3)C[C@H]1CC[C@@H]1[C@@H]2CC[C@]2(C)[C@@](O)(c3ccoc3)CC[C@]12O [Comp. I-w, 3β-(2-(2-(1-Pyrrolidinyl)ethoxy)ethoxy)-17β-(3-furyl)-5β-androstane-14β,17α-diol]",,,631,3.98,
"CNCCO[C@H]1CC[C@@]2(C)[C@H](CC[C@@H]3[C@@H]2CC[C@]2(C)[C@@](O)(c4ccoc4)CC[C@]32O)C1 [Comp. I-x, 3β-(2-Methylaminoethoxy)-17β-(3-furyl)-5β-androstane 14β,17α-diol]",,,501,10,
"C[C@]12CC[C@H](OCCCNC(=N)N)C[C@H]1CC[C@@H]1[C@@H]2CC[C@]2(C)[C@@](O)(c3ccoc3)CC[C@]12O [Comp. I-y, 3β(3-Guanidinopropoxy)-17β-(3-furyl)-5β-androstane-14β,17α-diol]",,,501,,6.31
"C[C@]12CC[C@H](OCC(N)CN)C[C@H]1CC[C@@H]1[C@@H]2CC[C@]2(C)[C@@](O)(c3ccoc3)CC[C@]12O (stereo partly drawn) [Comp. I-z, 3β-(2,3-Diaminopropoxy)-17β-(3-furyl)-5β-androstane-14β,17α-diol]",,,631,,5.01
"C[C@]12CC[C@H](O)C[C@H]1CC[C@@H]1[C@@H]2CC[C@]2(C)[C@@](O)(C3=CC(=O)OC3)CC[C@]12O [Ref. Comp., 3β,14β,17α-trihydroxy-5β-card-20(22)-enolide, reference compound]",,334 +/- 11.7 beats/min.,,,

# Source: patent US5591734A, “17-(3-furyl)-5β, 14β-androstane derivatives active on the cardiovascular system, processes for their preparation and pharmaceutical compositions containing same” (Sigma-Tau Industrie Farmaceutiche Riunite S.p.A., priority 1992, dated 1997)
